Source: ChEMBL document CHEMBL4425099, “Use of Osmotic Pumps to Establish the Pharmacokinetic-Pharmacodynamic Relationship and Define Desirable Human Performance Characteristics for Aggrecanase Inhibitors” (J Med Chem, 2016)
Activity calls are given as the source filed them. The calls are words filed in the database; no cut-off is given here.

Tests used:
Rattus norvegicus [1] = assay: Reduction in ADAMTS-4/ADAMTS-5 mediated aggrecan cleavage products in Lewis rat model of MIA assessed as aggrecanase-cleaved fragments at 30 mg/kg, po bid administered post 3 days MIA induction measured after 4 hrs of last dosage on day 7 by NITEGE sandwich ELISA; format: functional
Rattus norvegicus [2] = assay: Reduction in ADAMTS-4/ADAMTS-5 mediated aggrecan cleavage products in Lewis rat model of MIA assessed as aggrecanase-cleaved fragments at 30 mg/kg, po qd administered post 3 days MIA induction measured after 4 hrs of last dosage on day 7 by NITEGE sandwich ELISA; format: functional
[3] = Plasma concentration in Lewis rat model of MIA at 30 mg/kg, po bid administered post 3 days MIA induction measured after 4 hrs of last dosage on day 7; format: ADME, organism-based
[4] = AUC in Lewis rat at 10 mg/kg, po; format: ADME, organism-based; conditions: in vivo
[5] = Plasma concentration in Lewis rat model of MIA at 10 mg/kg, po bid administered post 3 days MIA induction measured after 4 hrs of last dosage on day 7; format: ADME, organism-based
[6] = Plasma concentration in Lewis rat at 10 mg/kg, po bid measured after 8 hrs; format: ADME, organism-based
[7] = Cmax in Lewis rat plasma at 10 mg/kg, po; format: ADME, organism-based; design: dose 10 mg/kg, route oral

Row | concentration at 4 h [3] [µM] | AUC [4] [µM·h] | concentration at 4 h [5] [µM] | concentration at 8 h [6] [µM] | Cmax [7] [µM] | Structure (SMILES) | inhibition (Rattus norvegicus [1]) | inhibition (Rattus norvegicus [2])
1 |  |  |  |  |  | C[C@@]1(O)CCCN(S(=O)(=O)c2ccc(OCc3ccc(F)cc3Cl)cc2)[C@H]1C(=O)NO | inactive | inactive
2 | 90 | 130 | 30 | 2.2 | 33 | O=C1NC(=O)[C@](CNC(=O)c2cc3cc(Cl)ccc3o2)(c2nccs2)N1 |  | 
